Broadly, the Emax is the maximal effect, on the per cent scale that the assay sets.

6 molecules from patent publication US20120214847A1, “2-[1-PHENYL-5-HYDROXY-4a-SUBSTITUTED-HEXAHYDROCYCLOPENTA[F]INDAZOL-5-YL]ETHYL PHENYL DERIVATIVES AS GLUCOCORTICOID RECEPTOR LIGANDS” (Merck Sharp & Dohme Corp., priority 2009, published 2012) can be followed below.

This experiment has as its target T1, human GR (Homo sapiens, UniProt P04150).
T1 construct: naturally expresses the human GR; endogenous in cells
T1 sequence (P04150 1-777): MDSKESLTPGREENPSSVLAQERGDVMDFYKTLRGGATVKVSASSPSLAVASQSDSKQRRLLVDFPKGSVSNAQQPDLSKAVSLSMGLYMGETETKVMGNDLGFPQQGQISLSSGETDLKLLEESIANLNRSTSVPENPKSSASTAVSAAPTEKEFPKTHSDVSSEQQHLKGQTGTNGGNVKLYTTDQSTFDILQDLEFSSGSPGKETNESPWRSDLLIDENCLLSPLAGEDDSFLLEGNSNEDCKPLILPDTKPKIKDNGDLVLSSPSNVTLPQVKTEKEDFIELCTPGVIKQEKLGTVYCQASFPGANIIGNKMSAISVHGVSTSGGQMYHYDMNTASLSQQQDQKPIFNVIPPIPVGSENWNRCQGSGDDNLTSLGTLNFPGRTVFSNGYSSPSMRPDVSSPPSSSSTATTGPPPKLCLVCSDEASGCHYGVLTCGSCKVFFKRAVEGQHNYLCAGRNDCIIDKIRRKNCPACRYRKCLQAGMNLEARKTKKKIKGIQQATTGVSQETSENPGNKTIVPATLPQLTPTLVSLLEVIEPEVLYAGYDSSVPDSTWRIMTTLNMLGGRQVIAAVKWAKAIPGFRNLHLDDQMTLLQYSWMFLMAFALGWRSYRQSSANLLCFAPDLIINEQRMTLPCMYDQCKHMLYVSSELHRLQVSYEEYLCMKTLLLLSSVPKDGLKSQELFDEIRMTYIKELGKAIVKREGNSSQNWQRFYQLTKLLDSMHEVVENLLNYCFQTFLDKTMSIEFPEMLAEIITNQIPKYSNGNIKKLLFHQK
Briefly: Trans-activation modulation of glucocorticoid receptor (GRAMMER), MMTV-LUC reporter in A549 cells. It is filed as cell-based. The settings on record: for Emax: A549, A549 cells, Emax relative to the activity obtained with 300 nM dexamethasone, read-out: Transactivation A549 Cells Grammer Emax (%); for EC50: A549 cells, IP = inflection point, read-out: Transactivation A549 Cells Grammer IP.

Each structure is given as a SMILES string.

Consider `N#Cc1ccnc(CC[C@]2(O)CCC3=Cc4c(cnn4-c4ccc(F)cc4)C[C@@]32C2CC2)c1` [Example 35, 2-{2-[(4aR,5R)-4a-Cyclopropyl-1-(4-fluorophenyl)-5-hydroxy-1,4,4a,5,6,7-hexahydrocyclopenta[f]indazol-5-yl]ethyl}pyridine-4-carbonitrile], for which the maximum response (Emax) came to 17% and the EC50 is 25 nM.
The corresponding values for `CC[C@]12Cc3cnn(-c4ccc(F)cc4)c3C=C1CC[C@@]2(O)CCc1ncccc1C(N)=O` [Example 52, 2-{2-[(4aS,5R)-4a-Ethyl-1-(4-fluorophenyl)-5-hydroxy-1,4,4a,5,6,7-hexahydrocyclopenta[f]indazol-5-yl]ethyl}pyridine-3-carboxamide] are 59% and 64 nM.
The corresponding values for `CC[C@]12Cc3cnn(-c4ccc(F)cc4)c3C=C1CC[C@@]2(O)CCc1cncc(F)c1` [Example 21, (4aS,5R)-4a-Ethyl-1-(4-fluorophenyl)-5-[2-(5-fluoropyridin-3-yl)ethyl]-1,4,4a,5,6,7-hexahydrocyclopenta[f]indazol-5-ol] are 31% and 76 nM.
The corresponding values for `NC(=O)c1cc(F)ccc1CC[C@]1(O)CCC2=Cc3c(cnn3-c3ccc(F)cc3)C[C@@]21C1CC1` [Example 39, 2-{2-[(4aR,5R)-4a-Cyclopropyl-1-(4-fluorophenyl)-5-hydroxy-1,4,4a,5,6,7-hexahydrocyclopenta[f]indazol-5-yl]ethyl}-5-fluorobenzamide] are 14% and 116 nM.
On to `CC[C@]12Cc3cnn(-c4cccc(F)c4)c3C=C1CC[C@@]2(O)CCc1cccc(F)c1C(N)=O` [Example 12, 2-{2-[(4aS,5R)-4a-Ethyl-1-(3-fluorophenyl)-5-hydroxy-1,4,4a,5,6,7-hexahydrocyclopenta[f]indazol-5-yl]ethyl}-6-fluorobenzamide], for which the Emax came to 58% and the EC50 was found to be 23 nM.
The corresponding values for `NS(=O)(=O)c1ccccc1CC[C@]1(O)CCC2=Cc3c(cnn3-c3cccnc3)C[C@@]21C1CC1` [Example 24, 2-{2-[(4aR,5R)-4a-Cyclopropyl-5-hydroxy-1-(pyridin-3-yl)-1,4,4a,5,6,7-hexahydrocyclopenta[f]indazol-5-yl]ethyl}benzenesulfonamide] are 35% and 24 nM.
